Experimental data from patent US9617266B2, “Imidazopyrimidine derivatives” (Merck Patent GmbH, priority 2013, dated 2017).
Structures can show the parent of a compound that is named as a salt.

Biological target: GCN2 (Homo sapiens, UniProt Q9P2K8)
Test: GCN2 enzyme assay (TR-FRET Lanthascreen, GFP-eIF2alpha phosphorylation)
Assay type: biochemical
Details: 10 μM ATP, 80 nM GFP-eIF2a substrate, 30 nM GCN2, room temperature
Text: GCN2: Assay Principle & Conditions
This assay can quantificate the activity of the serin kinase GCN2 (general control non-derepressible-2).
This kinase is involved in the stress metabolism of cells. It is activated upon starvation (amino acid depletion). Its natural substrate is eIF2a (eukaryotic initiation factor 2 alpha subunit), a translation factor, which gets activated (phosphorylated) by GCN2 in case of an amino acid bottleneck in the cells. This in turn leads to a halt of the protein synthesis. Inhibition of GCN2 results in stopping this mechanism: The cell can not stop protein production upon “starvation” stress.
The assay is run in two steps: the enzymatic reaction and the detection step. In the first step GCN2 is incubated with 10 μM ATP and 80 nM of the GFP-labelled substrate elF2alpha at room temperature.
The enzymatic reaction is stopped by addition of EDTA. The amount of phosphorylated elF2alpha is determined by TR-FRET (Lanthascreen): A complex is formed consisting of antibody and GFP labelled phospho-eIF2a, which allows a FRET upon exitation at 340 nm.
Final Concentrations in the Enzymatic Reaction

GCN2, sequence (Q9P2K8 whole entry, species assumed): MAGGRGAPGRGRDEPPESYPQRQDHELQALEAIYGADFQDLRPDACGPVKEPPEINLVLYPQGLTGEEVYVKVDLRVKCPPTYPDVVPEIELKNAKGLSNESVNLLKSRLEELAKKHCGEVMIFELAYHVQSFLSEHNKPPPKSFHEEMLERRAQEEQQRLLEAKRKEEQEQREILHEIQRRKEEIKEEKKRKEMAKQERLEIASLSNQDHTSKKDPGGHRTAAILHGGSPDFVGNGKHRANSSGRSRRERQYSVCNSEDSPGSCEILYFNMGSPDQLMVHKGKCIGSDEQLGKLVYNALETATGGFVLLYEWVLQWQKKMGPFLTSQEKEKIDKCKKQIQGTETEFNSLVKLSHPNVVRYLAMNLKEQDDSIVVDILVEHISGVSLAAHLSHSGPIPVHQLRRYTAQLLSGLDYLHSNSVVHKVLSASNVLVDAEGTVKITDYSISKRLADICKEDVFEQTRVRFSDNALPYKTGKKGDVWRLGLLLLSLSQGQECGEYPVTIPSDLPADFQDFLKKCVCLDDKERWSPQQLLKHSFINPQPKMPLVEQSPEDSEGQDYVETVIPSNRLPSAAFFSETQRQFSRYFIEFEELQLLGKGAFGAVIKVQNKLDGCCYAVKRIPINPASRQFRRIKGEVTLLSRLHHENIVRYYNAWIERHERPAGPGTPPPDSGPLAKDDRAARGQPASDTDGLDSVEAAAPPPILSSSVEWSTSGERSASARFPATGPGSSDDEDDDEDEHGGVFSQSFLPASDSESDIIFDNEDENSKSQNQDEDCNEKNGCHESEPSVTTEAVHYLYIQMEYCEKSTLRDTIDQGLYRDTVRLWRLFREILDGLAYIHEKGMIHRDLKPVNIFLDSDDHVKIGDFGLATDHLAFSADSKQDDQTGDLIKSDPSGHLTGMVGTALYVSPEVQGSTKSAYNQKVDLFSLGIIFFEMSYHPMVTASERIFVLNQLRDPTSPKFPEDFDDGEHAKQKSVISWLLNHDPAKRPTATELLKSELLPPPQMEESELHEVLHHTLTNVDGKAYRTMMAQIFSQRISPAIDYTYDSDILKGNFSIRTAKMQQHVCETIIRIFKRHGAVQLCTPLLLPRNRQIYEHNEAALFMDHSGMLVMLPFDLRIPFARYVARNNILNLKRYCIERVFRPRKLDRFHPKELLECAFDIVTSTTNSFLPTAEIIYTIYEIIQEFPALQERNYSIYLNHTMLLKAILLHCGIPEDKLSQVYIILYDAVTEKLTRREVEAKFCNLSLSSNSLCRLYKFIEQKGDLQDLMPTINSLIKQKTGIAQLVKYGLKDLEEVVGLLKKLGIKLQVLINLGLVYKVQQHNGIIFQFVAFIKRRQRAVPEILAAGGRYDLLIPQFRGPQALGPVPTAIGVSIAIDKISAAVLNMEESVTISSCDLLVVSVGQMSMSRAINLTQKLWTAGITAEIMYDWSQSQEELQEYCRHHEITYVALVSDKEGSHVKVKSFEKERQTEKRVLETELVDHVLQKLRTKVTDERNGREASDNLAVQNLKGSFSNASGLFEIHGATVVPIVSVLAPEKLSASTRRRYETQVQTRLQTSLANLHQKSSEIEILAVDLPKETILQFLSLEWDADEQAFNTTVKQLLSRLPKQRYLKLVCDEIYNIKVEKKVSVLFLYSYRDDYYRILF

Row | Structure (SMILES) | IC50 [µM]
1 | O[C@H]1CC[C@H](Nc2ncc3ncn(-c4ccc(I)c(F)c4)c3n2)C1 (relative stereo) [Compound A27, (trans)-3-[9-(3-fluoro-4-iodo-phenyl)-9H-purin-2-ylamino]-cyclopentanol] | 5 to 10
2 | Cn1cc(-c2ccc(-n3cnc4cnc(N[C@@H]5CC[C@@H](O)C5)nc43)cc2)cn1 (relative stereo) [Compound A30, (trans)-3-{9-[4-(1-Methyl-1H-pyrazol-4-yl)-phenyl]-9H-purin-2-ylamino}-cyclopentanol] | 1 to 5
3 | CCn1cc(Nc2ncc3ncn(-c4cnn(CC)c4)c3n2)cn1 [Compound A4, N,9-bis-(1-ethyl-1H-pyrazol-4-yl)-9H-purin-2-amine] | < 1
4 | CCn1cc(Nc2ncc3ncn(-c4ccc5c(c4)NC(=O)C5(C)C)c3n2)cn1 [Compound A9, 6-(2-((1-ethyl-1H-pyrazol-4-yl)amino)-9H-purin-9-yl)-3,3-dimethylindolin-2-one] | < 1
5 | CCOc1ccc(-n2cnc3cnc(Nc4cnn(CCn5cccn5)c4)nc32)cc1 [Compound A10, N-(1-(2-(1H-pyrazol-1-yl)ethyl)-1H-pyrazol-4-yl)-9-(4-ethoxyphenyl)-9H-purin-2-amine] | < 1
6 | COc1ccc(-n2cnc3cnc(Nc4cn[nH]c4)nc32)cc1 [Compound A18, [9-(4-methoxy-phenyl)-9H-purin-2-yl]-(1H-pyrazol-4-yl)-amine] | < 1
7 | COc1ccc(-n2cnc3cnc(Nc4ccn(C)n4)nc32)cc1 [Compound A19, [9-(4-methoxy-phenyl)-9H-purin-2-yl]-(1-methyl-1H-pyrazol-3-yl)-amine] | 1 to 5
8 | COc1ccc(-n2cnc3cnc(Nc4cnn(-c5ccccc5)c4)nc32)cc1 [Compound A20, [9-(4-methoxy-phenyl)-9H-purin-2-yl]-(1-phenyl-1H-pyrazol-4-yl)-amine] | 5 to 10
9 | Cn1cc(Nc2ncc3ncn(-c4ccc(-c5cnn(C)c5)cc4)c3n2)cn1 [Compound A21, (1-methyl-1H-pyrazol-4-yl)-{9-[4-(1-methyl-1H-pyrazol-4-yl)-phenyl]-9H-purin-2-yl}-amine] | < 1
10 | CCn1cc(Nc2ncc3ncn(-c4ccc(C(=O)NCC(O)CO)cc4)c3n2)cn1 (stereo not shown) [Compound A22, N-(2,3-dihydroxy-propyl)-4-[2-(1-ethyl-1H-pyrazol-4-ylamino)-purin-9-yl]-benzamide] | 1 to 5
11 | Cn1cc(Nc2ncc3nc(N)n(-c4ccc(-c5cnn(C)c5)cc4)c3n2)cn1 [Compound A24, N2-(1-methyl-1H-pyrazol-4-yl)-9-[4-(1-methyl-1H-pyrazol-4-yl)-phenyl]-9H-purine-2,8-diamine] | 1 to 5
12 | CCn1cc(Nc2ncc3nc(N)n(-c4ccc(C(=O)NCCO)cc4)c3n2)cn1 [Compound A25, 4-[8-amino-2-(1-ethyl-1H-pyrazol-4-ylamino)-purin-9-yl]-N-(2-hydroxy-ethyl)-benzamide] | 5 to 10
13 | Cn1cc(Nc2ncc3nc(N)n(-c4ccc(-c5cnn(C6CCNCC6)c5)cc4)c3n2)cn1 [Compound A26, N2-(1-methyl-1H-pyrazol-4-yl)-9-[4-(1-piperidin-4-yl-1H-pyrazol-4-yl)-phenyl]-9H-purine-2,8-diamine] | 1 to 5
14 | NC(=O)[C@@H]1CC[C@@H](Nc2ncc3ncn(-c4ccc(I)c(F)c4)c3n2)C1 [Compound A31, (1R,3R)-3-[9-(3-fluoro-4-iodo-phenyl)-9H-purin-2-ylamino]-cyclopentanecarboxylic acid amide] | 1 to 5
15 | CCOc1ccc(-n2cnc3cnc(N[C@@H]4CC[C@@H](C(N)=O)C4)nc32)cc1 [Compound A32, (1R,3R)-3-[9-(4-ethoxy-phenyl)-9H-purin-2-ylamino]-cyclopentanecarboxylic acid amide] | 1 to 5
16 | NC(=O)[C@@H]1CC[C@@H](Nc2ncc3ncn(-c4ccc(I)cc4)c3n2)C1 [Compound A33, (1R,3R)-3-[9-(4-iodo-phenyl)-9H-purin-2-ylamino]-cyclopentanecarboxylic acid amide] | 1 to 5
17 | COCCOc1ccc(-n2cnc3cnc(N[C@@H]4CC[C@@H](C(N)=O)C4)nc32)cc1 [Compound A34, (1R,3R)-3-{9-[4-(2-methoxy-ethoxy)-phenyl]-9H-purin-2-ylamino}-cyclopentanecarboxylic acid amide] | 1 to 5
18 | COCCn1cc(-c2ccc(-n3cnc4cnc(N[C@@H]5CC[C@@H](C(N)=O)C5)nc43)cc2F)cn1 [Compound A35, (1R,3R)-3-(9-{3-fluoro-4-[1-(2-methoxy-ethyl)-1H-pyrazol-4-yl]-phenyl}-9H-purin-2-ylamino)-cyclopentanecarboxylic acid amide] | < 1
19 | CCOCCn1cc(-c2ccc(-n3cnc4cnc(N[C@@H]5CC[C@@H](C(N)=O)C5)nc43)cc2)cn1 [Compound A36, (1R,3R)-3-(9-{4-[1-(2-ethoxy-ethyl)-1H-pyrazol-4-yl]-phenyl}-9H-purin-2-ylamino)-cyclopentanecarboxylic acid amide] | < 1
20 | Cc1ccc2cc(-n3cnc4cnc(N[C@@H]5CC[C@@H](C(N)=O)C5)nc43)ccc2n1 [Compound A37, (1R,3R)-3-[9-(2-methyl-quinolin-6-yl)-9H-purin-2-ylamino]-cyclopentanecarboxylic acid amide] | < 1
21 | COCCn1cc(-c2ccc(-n3cnc4cnc(N[C@@H]5CCNC5)nc43)cc2)cn1 [Compound A38, (9-{4-[1-(2-methoxy-ethyl)-1H-pyrazol-4-yl]-phenyl}-9H-purin-2-yl)-(R)-pyrrolidin-3-yl-amine] | 5 to 10
22 | COCCn1cc(-c2ccc(-n3cnc4cnc(N[C@@H]5CCN(C(=O)CCN6CCN(C)CC6)C5)nc43)cc2)cn1 [Compound A39, 1-[(R)-3-(9-{4-[1-(2-methoxy-ethyl)-1H-pyrazol-4-yl]-phenyl}-9H-purin-2-ylamino)-pyrrolidin-1-yl]-3-(4-methyl-piperazin-1-yl)-propan-1-one] | 1 to 5

Continued, values first:

Row | IC50 [µM] | Structure (SMILES)
23 | 1 to 5 | COCCn1cc(-c2ccc(-n3cnc4cnc(N[C@H]5CC[C@H](O)C5)nc43)cc2F)cn1 (relative stereo) [Compound A29, (trans)-3-(9-{3-fluoro-4-[1-(2-methoxy-ethyl)-1H-pyrazol-4-yl]-phenyl}-9H-purin-2-ylamino)-cyclopentanol]
24 | < 1 | CCOc1ccc(-n2cnc3cnc(Nc4cnn(C5CCN(C)CC5)c4)nc32)cc1 [Compound A1, 9-(4-ethoxyphenyl)-N-(1-(1-methylpiperidin-4-yl)-1H-pyrazol-4-yl)-9H-purin-2-amine]
25 | < 1 | COCCOc1ccc(-n2cnc3cnc(Nc4cnn(C5CCN(C)CC5)c4)nc32)cc1 [Compound A2, 9-(4-(2-methoxyethoxy)phenyl)-N-(1-(1-methylpiperidin-4-yl)-1H-pyrazol-4-yl)-9H-purin-2-amine]
26 | < 1 | NC(=O)c1ccc(-n2cnc3cnc(Nc4cnn(C5CCOCC5)c4)nc32)cc1 [Compound A3, 4-(2-((1-(tetrahydro-2H-pyran-4-yl)-1H-pyrazol-4-yl)amino)-9H-purin-9-yl)benzamide]
27 | < 1 | CCn1cc(-n2cnc3cnc(Nc4cnn(C5CCOCC5)c4)nc32)cn1 [Compound A5, 9-(1-ethyl-1H-pyrazol-4-yl)-N-(1-(tetrahydro-2H-pyran-4-yl)-1H-pyrazol-4-yl)-9H-purin-2-amine]
28 | 1 to 5 | CCOc1ccc(-n2c(C)nc3cnc(Nc4cnn(C5CCN(C)CC5)c4)nc32)cc1 [Compound A6, 9-(4-ethoxyphenyl)-8-methyl-N-(1-(1-methylpiperidin-4-yl)-1H-pyrazol-4-yl)-9H-purin-2-amine]
29 | < 1 | CCOc1ccc(-n2cnc3cnc(Nc4cnn(CCCC5CCNCC5)c4)nc32)cc1 [Compound A11, 9-(4-ethoxyphenyl)-N-(1-(3-(piperidin-4-yl)propyl)-1H-pyrazol-4-yl)-9H-purin-2-amine hydrochloride]
30 | < 1 | Fc1cc(-n2cnc3cnc(Nc4cnn(C5CCOCC5)c4)nc32)ccc1Cl [Compound A12, 9-(4-chloro-3-fluorophenyl)-N-(1-(tetrahydro-2H-pyran-4-yl)-1H-pyrazol-4-yl)-9H-purine-2-amine]
31 | < 1 | COCCN1CCC(n2cc(Nc3ncc4ncn(-c5ccc(OC)cc5)c4n3)cn2)CC1 [Compound A13, N-(1-(1-(2-methoxyethyl)piperidin-4-yl)-1H-pyrazol-4-yl)-9-(4-methoxyphenyl)-9H-purin-2-amine]
32 | < 1 | COc1ccc(-n2cnc3cnc(Nc4cnn(C5CCN(C)CC5)c4)nc32)cc1 [Compound A16, 9-(4-methoxyphenyl)-N-(1-(1-methylpiperidin-4-yl)-1H-pyrazol-4-yl)-9H-purin-2-amine]
33 | < 1 | CCOc1ccc(-n2cnc3cnc(Nc4cnn(C5CCC(N)CC5)c4)nc32)cc1 (stereo not shown) [Compound A17, N-(1-(4-aminocyclohexyl)-1H-pyrazol-4-yl)-9-(4-ethoxyphenyl)-9H-purin-2-amine hydrochloride]
34 | < 1 | Cn1cc(Nc2ncc3ncn(-c4ccc(-c5cnn(C6CCNCC6)c5)cc4)c3n2)cn1 [Compound A23, (1-methyl-1H-pyrazol-4-yl)-{9-[4-(1-piperidin-4-yl-1H-pyrazol-4-yl)-phenyl]-9H-purin-2-yl}-amine]
